Laboratory results taken from PubChem BioAssay AID330 (DTP/NCI, 2004).
Values joined by “and” are separate entries in the source; they are usually repeats but may differ in a detail not shown here. Equal entries are not always repeated. Inconclusive results and toxic doses are left out. The calls were made as follows: active = survival T/C of 150% or more; inactive = T/C below 125% in these data.

System: P388 leukemia ip, CD2F1 mice, survival T/C
Experiment: NCI In Vivo Anticancer Drug Screen. Data for tumor model P388 Leukemia (intraperitoneal) in CD2F1 (CDF1) mice
Details: endpoint: median survival time, higher = longer survival
In short: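 Mice carrying the transplanted tumor received test compound or vehicle. Survival was recorded in each group, and the value is the treated-group measurement divided by that of the vehicle-treated control group.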

[1] = dose: 50.0 mg/kg/injection, schedule: Q01DX005 (ip), vehicle: Klucel (hydroxypropylcellulose) (HPC)
[2] = dose: 100.0 mg/kg/injection, schedule: Q01DX005 (ip), vehicle: Klucel (hydroxypropylcellulose) (HPC)
[3] = dose: 200.0 mg/kg/injection, schedule: Q01DX005 (ip), vehicle: Klucel (hydroxypropylcellulose) (HPC)
[4] = dose: 50.0 mg/kg/injection, schedule: Q01DX009 (ip), vehicle: saline with Tween-80
[5] = dose: 50.0 mg/kg/injection, schedule: Q01DX009 (ip), vehicle: saline
[6] = dose: 100.0 mg/kg/injection, schedule: Q01DX009 (ip), vehicle: saline with Tween-80
[7] = dose: 100.0 mg/kg/injection, schedule: Q01DX009 (ip), vehicle: saline

Measured: T/C

COc1ccc(C2c3cc4c(cc3OC(C)(OC)C2C)OCO4)cc1 (stereo not given)
inactive: dose: 6.25 mg/kg/injection, schedule: Q01DX005 (ip), vehicle: Klucel (hydroxypropylcellulose) (HPC) 95 % of control | dose: 12.5 mg/kg/injection, schedule: Q01DX005 (ip), vehicle: Klucel (hydroxypropylcellulose) (HPC) 87 % of control | dose: 25.0 mg/kg/injection, schedule: Q01DX005 (ip), vehicle: Klucel (hydroxypropylcellulose) (HPC) 87 % of control

COC(=O)C1=C(C(=O)OC)SC(=C2C3=C(SC(C(=O)OC)=C(C(=O)OC)S3)c3ccccc32)S1
inactive: dose: 30.0 mg/kg/injection, schedule: Q01DX005 (ip), vehicle: Klucel (hydroxypropylcellulose) (HPC) 96 % of control | dose: 60.0 mg/kg/injection, schedule: Q01DX005 (ip), vehicle: Klucel (hydroxypropylcellulose) (HPC) 87 % of control and 91 % of control | dose: 120.0 mg/kg/injection, schedule: Q01DX005 (ip), vehicle: Klucel (hydroxypropylcellulose) (HPC) 89 % of control | dose: 240.0 mg/kg/injection, schedule: Q01DX005 (ip), vehicle: Klucel (hydroxypropylcellulose) (HPC) 86 % of control

Cc1ccc(N2C(=O)CSC2=S)cc1Br
inactive: dose: 50.0 mg/kg/injection, schedule: Q01DX009 (ip), vehicle: suspension in saline 93 % of control | dose: 100.0 mg/kg/injection, schedule: Q01DX009 (ip), vehicle: suspension in saline 105 % of control | dose: 200.0 mg/kg/injection, schedule: Q01DX009 (ip), vehicle: suspension in saline 93 % of control

Oc1ccc2ccccc2c1/C=N/N=c1\[nH][nH]/c(=N\N=C\c2c(O)ccc3ccccc23)c2ccccc12
inactive: dose: 50.0 mg/kg/injection, schedule: Q01DX005 (ip), vehicle: saline with Tween-80 98 % of control | dose: 100.0 mg/kg/injection, schedule: Q01DX005 (ip), vehicle: saline with Tween-80 97 % of control | dose: 200.0 mg/kg/injection, schedule: Q01DX005 (ip), vehicle: saline with Tween-80 99 % of control

c1ccc(-c2cc(Nc3ccc4c(c3)OCO4)c3cc4c(cc3n2)OCO4)cc1
inactive: [1] 101 % of control | [2] 101 % of control | [3] 97 % of control

CC(CN(C)C)C(=O)c1ccccc1 (stereo not given)
inactive: dose: 6.25 mg/kg/injection, schedule: Q01DX009 (ip), vehicle: saline with Tween-80 113 % of control | dose: 12.5 mg/kg/injection, schedule: Q01DX009 (ip), vehicle: saline with Tween-80 112 % of control | dose: 25.0 mg/kg/injection, schedule: Q01DX009 (ip), vehicle: saline with Tween-80 120 % of control | [4] 114 % of control | [5] 99 % of control | [6] 117 % of control | [7] 99 % of control

COc1cc(NCCC2CCCCN2)c2ncccc2c1 (stereo not given)
inactive: dose: 6.25 mg/kg/injection, schedule: Q01DX005 (ip), vehicle: saline 100 % of control | dose: 12.5 mg/kg/injection, schedule: Q01DX005 (ip), vehicle: saline 100 % of control

Cc1cc2c(cc1[N+](=O)[O-])NC(CNC(C)C)CC2 (stereo not given)
inactive: [4] 101 % of control | [6] 105 % of control | dose: 200.0 mg/kg/injection, schedule: Q01DX009 (ip), vehicle: saline with Tween-80 108 % of control

C1CCC2(CC1)NCCO2
inactive: dose: 25.0 mg/kg/injection, schedule: Q01DX005 (ip), vehicle: suspension in saline 98 % of control | dose: 50.0 mg/kg/injection, schedule: Q01DX005 (ip), vehicle: suspension in saline 93 % of control | dose: 100.0 mg/kg/injection, schedule: Q01DX005 (ip), vehicle: suspension in saline 94 % of control | dose: 200.0 mg/kg/injection, schedule: Q01DX005 (ip), vehicle: suspension in saline 109 % of control | dose: 400.0 mg/kg/injection, schedule: Q01DX005 (ip), vehicle: suspension in saline 98 % of control

COc1ccc2c(c1OC(=O)NCCCl)-c1cccc3c1C(C2)N(CCOC(=O)NCCCl)CC3 (stereo not given)
inactive: dose: 6.25 mg/kg/injection, schedule: Q04DX003 (ip), vehicle: saline + alcohol 109 % of control | dose: 12.5 mg/kg/injection, schedule: Q04DX003 (ip), vehicle: saline + alcohol 102 % of control | dose: 25.0 mg/kg/injection, schedule: Q04DX003 (ip), vehicle: saline + alcohol 96 % of control | dose: 50.0 mg/kg/injection, schedule: Q04DX003 (ip), vehicle: saline + alcohol 106 % of control | dose: 100.0 mg/kg/injection, schedule: Q04DX003 (ip), vehicle: saline + alcohol 98 % of control | dose: 200.0 mg/kg/injection, schedule: Q04DX003 (ip), vehicle: saline + alcohol 105 % of control

CC(=O)c1ccc(OCc2ccccc2)cc1OCc1ccccc1
inactive: [5] 97 % of control | [7] 100 % of control | dose: 200.0 mg/kg/injection, schedule: Q01DX009 (ip), vehicle: saline 98 % of control

CCOP(=O)(Nc1ccc2c(c1)Cc1c-2cc(Cl)c(NC(C)=O)c1Cl)OCC
inactive: [1] 95 % of control | [2] 97 % of control | [3] 97 % of control
